# From patent publication US20040014942A1, “Mutant strains capable of producing chemically diversified proteins by incorporation of non-conventional amino acids” (priority 2000, published 2004)
# Key:
# [1] = test system: strains β5479, β5485 and β5486; test: Phenotype of new valS mutants from mutator strain; assay type: cell-based, Escherichia coli
# Source text: Three of these clones served to prepare lysates of the phage P1, which were used to transduce the strain β5366, by selecting for resistance to kanamycin, following the procedure of Example 5. […] The locus valS of the three strains β5479, β5485 and β5486, each corresponding to an SCC-suppressible transducer obtained from one of the three lysates was amplified by PCR and sequenced as described in Example 3. A different localised mutation was found for each of the three strains, viz. Arg 223 changed into His in the strain β5479, Val 276 changed into Ala in the strain β5485 and Asp 230 changed into Asn in the strain β5486.
# [2] = test system: strain β5366 (wild-type valS allele); test: Sensitivity to non-canonical amino acids, growth inhibition zone on Petri dishes; assay type: cell-based, E. coli; conditions: 100 mM solution in central well
# Protocol: (1) 100 mM L-2-amino-butyrate
# (2) 100 mM L-2-amino-valerate
# (3) 100 mM L-2-3-diamino-propionate
# [3] = test system: strain β5419 with mutator allele dnaQ::miniTn10; test: Selection on solid medium with S-carbamyl-L-cysteine; assay type: cell-based, E. coli; conditions: dishes 0 to 8 mM, without thymidine, 96 hours at 30°, mutator allele only
# Source text: The strain β5366 carrying the false-sense allele thyA:Val146 on the plasmid pTS1 is transduced with a lysate of the phage P1 harvested on an auxiliary strain of E. coli (β7170, Bouzon et al., 1997) in the chromosome of which a marker of resistance to kanamycin had been introduced at the locus nrdD, neighbour of the locus valS of the gene of valyl-tRNA synthetase, thus producing the strain β5419. A mutator allele of the gene dnaQ is introduced extemporaneously by transduction of the strain β5419 using a lysate of the phage P1 harvested on an auxiliary strain (MS2131, Shapiro, 1990) carrying a marker of resistance to the tetracycline dnaQ::miniTn10. […] After 24 hours, the cells are harvested, and washed twice in an identical volume of culture medium without thymidine. A volume of 0.1 ml of the resultant suspension, corresponding to approximately 10^8 bacteria, is spread on the surface of a series of Petri dishes containing a concentration of S-carbamyl-L-cysteine varying between 0 and 8 mM by adding 1 mM increments of the glucose mineral MS medium (2 g/l). The same procedure is applied to the non-mutator strain β5419, and to the wild-type gene dnaQ. All the Petri dishes are incubated for 96 hours at 30°. […]
# adapted strain β8146 = test: Phenotypic suppression by metabolic precursors of cysteine; assay type: cell-based, E. coli; conditions: 3 mM (L-thiazolidine4-carboxylate acid 2 mM), instead of thymidine or thymine
# Source text: (§1) The nutritional requirement for cysteine of the adapted strains β8144 and β8146 is utilised to characterise metabolic precursors which can replace cysteine in the culture medium without giving rise to degradation by oxidation. […] However, the addition of none of these substances allows the growth of the strain β1308 leading to chromosomal deletion of the gene thyA of thymidylate synthase, thus excluding their contamination by traces of thymine or thymidine.
# adapted strain β8144 = test: as above; assay type: cell-based, E. coli; conditions: 3 mM (L-thiazolidine4-carboxylate acid 2 mM), instead of thymidine or thymine
# Source text: as §1
# strain β5455 = test: Growth with S-carbamyl-L-cysteine without thymine or thymidine; assay type: cell-based, E. coli; conditions: 3 mM S-carbamyl-L-cysteine
# Source text: A lysate of the phage P1 harvested from such a clone is used to transduce the strain β5366 carrying the plasmidic allele thyA:Val146. […] The other half of the transducers are incapable of this, and require thymine or thymidine to proliferate, just like the strain β5366. This proportion of the phenotypes is in accordance with the genetic distance between the loci valS and nrdD (0.4 mn). Thus, suppression of the false-sense mutation of thyA Cys->Val by a low concentration of exogenous cysteine could result from an alteration of the gene of valyl-tRNA synthetase. […] An A changed into a C causes replacement of the threonine at position 222 by proline, thus confirming the fixation of a genetic alteration in the gene valS of the strain β5455.
# [4] = test system: strain β5366 (thyA:Val146); test: Growth over a cysteine diffusion gradient; assay type: cell-based, E. coli
# Source text: (§2) The plasmid pTS1 thus obtained propagates the allele thyA:Val146, in which the position 146 occupied in the wild-type thyA gene by the codon UGC of cysteine is occupied by the codon GUA of valine. The plasmid pTS1 is introduced by transformation, carried out according to the method of Sambrook and coll. (1989), in the strain ΔthyA of E. coli K12, β1308 (Lemeignan and coll., 1993), whereof the chromosome gene of the thymidylate synthase, thyA, is deleted. […] Thus, everything happens as if the cysteine could infiltrate the active site of the valyl-tRNA synthetase to form erroneous Cys-tRNA^val's capable of correcting the replacement of cysteine by valine in the active site of the thymidylate synthase. The excess valine would prevent the formation of these erroneous Cys-tRNA^val's.
# [5] = test system: strain β5274 (thyA:Ile146); test: Phenotypic suppression by cysteine; assay type: cell-based, E. coli; conditions: 0.1 mM isoleucine
# Protocol: The plasmid pTS2 thus obtained propagates the allele thyA:Ile146, in which the position 146 occupied in the wild-type thyA gene by the codon UGC of cysteine is occupied by the codon AUA of isoleucine. The strain propagating the plasmidic allele thyA:Ile146, […], proves to require the nutritional addition of thymine, thymidine or cysteine in excess, as in the case of the strain β5366. Phenotypic suppression of the strain β5274 by cysteine is abolished by 0.1 mM isoleucine, just as that of the strain β5366 is abolished by valine. Thus everything happens as if the isoleucyl-tRNA synthetase was capable of forming erroneous Cys-tRNA^Ile's in the presence of an excess of cysteine, and this erroneous formation was prevented by the presence of an excess of isoleucine.
# [6] = test system: twelve clones from serial propagation of β5366; test: Growth factor test of clones after serial culture; assay type: cell-based, E. coli; conditions: glucose mineral MS medium dishes
# Protocol: The cells are then washed twice with deoxygenated mineral MS medium. A deoxygenated nutritive medium containing 10 ml glucose mineral MS medium to which 1.5 mM cysteine is added is inoculated at 1/100 using washed cells. The cells are then cultivated in anaerobiosis for 24 hours at 30° C. and a fresh tube containing 10 ml deoxygenated cysteine glucose mineral MS medium is inoculated with a 1/100 dilution of the culture at the preceding stationary phase. This procedure is repeated 26 times. At the end of this serial propagation, 12 clones from the liquid culture are isolated on dishes of thymidine (0.3 mM) glucose mineral MS medium (2 g/l) in aerobiosis and kept in suspension in the same liquid medium at −80° C. The twelve clones are tested on dishes containing glucose mineral MS medium with nutritional factors added.
# strain β1308 (ΔthyA) = test: Growth over a cysteine diffusion gradient; assay type: cell-based, E. coli; conditions: same conditions
# Source text: as §2
Molecule,effect on growth [2],replacing cysteine as a growth factor (adapted strain β8146),replacing cysteine as a growth factor (adapted strain β8144),also measured
L-2-amino-butyrate,without effect,–,–,sensitivity to amino-butyrate ([1]; clones suppressing false-sense mutant Cys 146 Val of thyA): shows sensitivity
NC(=O)SC[C@H](N)C(=O)O [S-carbamyl-L-cysteine],–,capable of replacing cysteine as a growth factor,capable of replacing cysteine as a growth factor,"growth in glucose mineral solid medium without thymidine ([1]; 3 mM SCC, approximately half the transducers): capable of growing; concentration of S-carbamyl-L-cysteine at which colonies appear [3]: exceeding 2 mM; growth in the absence of thymine or thymidine (strain β5455): capable of growing"
CC(C)[C@H](N)C(=O)O [valine],–,–,–,effect on growth over a cysteine gradient ([4]; 0.1 mM valine added to Petri dish medium): abolishes the growth
CC[C@H](C)[C@H](N)C(=O)O [isoleucine],–,–,–,effect on phenotypic suppression by cysteine [5]: abolished
CSC[C@H](N)C(=O)O [S-methyl-L-cysteine],–,capable of replacing cysteine as a growth factor,capable of replacing cysteine as a growth factor,–
NC[C@H](N)C(=O)O [L-2-3-diamino-propionate],without effect,–,–,–
CCC[C@H](N)C(=O)O [L-2-amino-valerate],without effect,–,–,–
N[C@@H](CS)C(=O)O [L-cysteine],–,–,–,"cysteine concentration in culture medium replacing thymine or thymidine as growth factor [6]: at least 1.5 mM; growth over a cysteine diffusion gradient (strain β1308 (ΔthyA)): does not give rise to any detectable growth; growth over a cysteine diffusion gradient ([4]; 30° C., glucose mineral MS medium, central well 0.1 ml of 400 mM L-cysteine): marginal growth"
O=C(O)[C@@H]1CSCN1 [L-thiazolidine4-carboxylate acid],–,capable of replacing cysteine as a growth factor,capable of replacing cysteine as a growth factor,–
